Source: BigSolDB 2.1

Cc1c(-c2ccccc2)oc2c(C(=O)O)cccc2c1=O
solubility (mole fraction)
Conditions | in DMF | in THF | in acetone | in acetonitrile | in ethanol | in ethyl acetate | in isobutanol | in methanol | in methyl acetate | in n-butyl acetate
278.15 K | 0.0129 | 0.013 | 0.0019 | 0.000211 | 0.00108 | 0.00088 | 0.000942 | 0.000344 | 0.000929 | 0.000947
283.15 K | 0.0165 | 0.0154 | 0.00219 | 0.000247 | 0.00128 | 0.00114 | 0.00118 | 0.000449 | 0.00112 | 0.0011
288.15 K | 0.0213 | 0.0183 | 0.00259 | 0.00031 | 0.00153 | 0.00141 | 0.00143 | 0.000587 | 0.00145 | 0.00125
293.15 K | 0.0259 | 0.0217 | 0.00301 | 0.00037 | 0.00181 | 0.00178 | 0.00175 | 0.000767 | 0.0019 | 0.00141
298.15 K | 0.0321 | 0.0261 | 0.0034 | 0.000458 | 0.00216 | 0.00221 | 0.00214 | 0.00102 | 0.00245 | 0.00158
303.15 K | 0.0399 | 0.0313 | 0.00381 | 0.000542 | 0.00258 | 0.00272 | 0.00261 | 0.00136 | 0.00302 | 0.00178
308.15 K | 0.0485 | 0.0371 | 0.00438 | 0.000641 | 0.00304 | 0.00341 | 0.00313 | 0.00181 | 0.00382 | 0.00197
313.15 K | 0.0587 | 0.0443 | 0.00489 | 0.000768 | 0.00363 | 0.00416 | 0.00376 | 0.00242 | 0.00473 | 0.00221
318.15 K | 0.072 | 0.0517 | 0.00546 | 0.000893 | 0.00431 | 0.00494 | 0.00458 | 0.00316 | 0.0057 | 0.00242
323.15 K | 0.0889 | 0.061 | 0.00617 | 0.00103 | 0.00512 | 0.00594 | 0.0056 | 0.00419 | 0.00673 | 0.00268
